Results as given in PubChem BioAssay (NCI).
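Abbreviation: GI50, concentration required for 50% inhibition of growth. TGI marks complete inhibition of growth.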

Legend:
Experiment in all cases: NCI anticancer screen, dose series, 384-well format
[1] = test system: NCI-H23 lung
[2] = test system: SW-620 colon
[3] = test system: 786-0 renal
[4] = test system: SK-OV-3 ovarian
[5] = test system: ACHN renal
[6] = test system: T-47D breast
[7] = test system: SR leukemia
[8] = test system: RPMI-8226 leukemia
[9] = test system: IGROV1 ovarian
[10] = test system: SN12C renal
[11] = test system: TK-10 renal
[12] = test system: SK-MEL-5 melanoma
[13] = test system: KM12 colon
[14] = test system: PC-3 prostate
[15] = test system: HS 578T breast
[16] = test system: OVCAR-8 ovarian
[17] = test system: MDA-MB-468 breast
[18] = test system: UO-31 renal
[19] = test system: COLO 205 colon
[20] = test system: OVCAR-4 ovarian
[21] = test system: OVCAR-3 ovarian
[22] = test system: BT-549 breast
[23] = test system: NCI-H522 lung
[24] = test system: NCI-H226 lung
[25] = test system: CAKI-1 renal
[26] = test system: OVCAR-5 ovarian
[27] = test system: A549 NSCLC
[28] = test system: EKVX NSCLC
[29] = test system: U251 glioblastoma
[30] = test system: HOP-62 NSCLC
[31] = test system: LOX IMVI melanoma
[32] = test system: SNB-19 CNS
[33] = test system: HOP-92 NSCLC
[34] = test system: HL-60(TB) leukemia
[35] = test system: NCI/ADR-RES ovarian
[36] = test system: HCT-116 colon
[37] = test system: MALME-3M melanoma
[38] = test system: SF-268 CNS
[39] = test system: NCI-H460 NSCLC
[40] = test system: MDA-MB-435 melanoma
[41] = test system: HCC-2998 colon
[42] = test system: M14 melanoma
[43] = test system: SF-539 CNS
[44] = test system: MCF7 breast
[45] = test system: A498 renal
[46] = test system: MOLT-4 leukemia
[47] = test system: HCT-15 colon
[48] = test system: NCI-H322M lung
[49] = test system: CCRF-CEM leukemia
[50] = test system: RXF 393 renal
[51] = test system: DU-145 prostate
[52] = test system: UACC-62 melanoma
[53] = test system: SK-MEL-28 melanoma
[54] = test system: MDA-MB-231 breast
[55] = test system: UACC-257 melanoma
[56] = test system: SF-295 CNS
[57] = test system: HT29 colon
[58] = test system: SNB-75 CNS

C=CC(=O)N1CCN(c2nc(=O)n(-c3c(C)ccnc3C(C)C)c3nc(-c4c(O)cccc4F)c(F)cc23)[C@@H](C)C1
TGI [1]: 0.592 µM | GI50 [2]: 36.8 µM | TGI [2]: > 100 µM | GI50 [3]: 21.4 µM | TGI [3]: 44.4 µM | GI50 [4]: 46.5 µM | TGI [4]: > 100 µM | GI50 [5]: 30.2 µM | TGI [5]: > 68.2 µM | GI50 [6]: > 81.3 µM | TGI [6]: > 100 µM | GI50 [7]: 6.68 µM | TGI [7]: 18.9 µM | GI50 [8]: 16.6 µM | TGI [8]: 32.5 µM | GI50 [9]: 27 µM | TGI [9]: 71 µM | GI50 [10]: 50.3 µM | TGI [10]: > 100 µM | GI50 [11]: 46.2 µM | TGI [11]: > 100 µM | GI50 [12]: 21.6 µM | TGI [12]: 46.5 µM | GI50 [13]: 31.5 µM | TGI [13]: > 75.8 µM | GI50 [14]: 35.9 µM | TGI [14]: > 94.4 µM | GI50 [15]: 13.9 µM | TGI [15]: 35.1 µM | GI50 [16]: 19.7 µM | TGI [16]: 36.6 µM | GI50 [17]: 13 µM | TGI [17]: 37.2 µM | GI50 [18]: 69.7 µM | TGI [18]: > 100 µM | GI50 [19]: 24.7 µM | TGI [19]: 58.8 µM | GI50 [20]: 43.8 µM | TGI [20]: > 100 µM | GI50 [21]: 22 µM | TGI [21]: 50.8 µM | GI50 [22]: 15.7 µM | TGI [22]: 35.2 µM | GI50 [23]: 21.1 µM | TGI [23]: 43.2 µM | GI50 [24]: 20.5 µM | TGI [24]: 52.2 µM | GI50 [25]: 30.9 µM | TGI [25]: > 89.7 µM | GI50 [26]: > 100 µM | TGI [26]: > 100 µM | GI50 [27]: 32.5 µM | TGI [27]: > 85.6 µM | GI50 [28]: 37.1 µM | TGI [28]: > 100 µM | GI50 [29]: 22 µM | TGI [29]: 52.6 µM | GI50 [30]: 0.0543 µM | TGI [30]: 26 µM | GI50 [31]: 16.6 µM | TGI [31]: 31.8 µM | GI50 [32]: 53.9 µM | TGI [32]: > 100 µM | GI50 [33]: 48.6 µM | TGI [33]: > 100 µM | GI50 [34]: 19.8 µM | TGI [34]: 35.5 µM | GI50 [35]: > 100 µM | TGI [35]: > 100 µM | GI50 [36]: 17.5 µM | TGI [36]: 35.6 µM | GI50 [37]: 14.7 µM | TGI [37]: 35.3 µM | GI50 [38]: 27.8 µM | TGI [38]: 79.8 µM | GI50 [39]: 28.2 µM | TGI [39]: 65.4 µM | GI50 [40]: 62.4 µM | TGI [40]: > 100 µM | GI50 [41]: 15 µM | TGI [41]: 29.6 µM | GI50 [42]: 32.1 µM | TGI [42]: > 79.9 µM | GI50 [43]: 17.4 µM | TGI [43]: 33.3 µM | GI50 [44]: 36.9 µM | TGI [44]: > 100 µM | GI50 [45]: 31.1 µM | TGI [45]: > 82.8 µM | GI50 [46]: 9.94 µM | TGI [46]: 22.2 µM | GI50 [47]: 27.2 µM | TGI [47]: > 65.3 µM | GI50 [48]: 44.6 µM | TGI [48]: > 100 µM | GI50 [49]: 18.8 µM | TGI [49]: 34.2 µM | GI50 [50]: 4.34 µM | TGI [50]: 14.3 µM | GI50 [51]: 25.3 µM | TGI [51]: 74.7 µM | GI50 [52]: 43.5 µM | TGI [52]: > 100 µM | GI50 [53]: > 100 µM | TGI [53]: > 100 µM | GI50 [54]: 24.3 µM | TGI [54]: 57 µM | GI50 [55]: 37.1 µM | TGI [55]: > 100 µM | GI50 [56]: 33.4 µM | TGI [56]: > 88.3 µM | GI50 [57]: 33.2 µM | TGI [57]: > 100 µM | GI50 [58]: 54.2 µM | TGI [58]: 97.5 µM
